Source: the NIST ThermoML archive (doi:10.1021/acs.jced.7b00344)

Tests used:
[1] = Liquid; for viscosity / mass density: 101.3 kPa; for viscosity: Capillary tube (Ostwald / Ubbelohde) method; for mass density: Pycnometric method; for vapor or sublimation pressure: Ebulliometric method (Recirculating still)
[2] = xn = mol fraction of the nth substance listed; settings: 101.3 kPa, Liquid, x1 = 1; for viscosity: Capillary tube (Ostwald / Ubbelohde) method; for mass density: Pycnometric method

CC(=O)CCCCl [1-chloro-4-pentanone]
[1]
Settings	mass density [kg/m3]	vapor or sublimation pressure [kPa]	viscosity [mPa·s]
303.15 K	1051.3	–	1.582
313.15 K	1041.1	–	1.318
323.15 K	1031.2	–	1.078
333.15 K	1020.8	–	0.9667
343.2 K	–	2.91	–
353.1 K	–	4.66	–
363.1 K	–	7.15	–
373.8 K	–	10.5	–
393.8 K	–	20.79	–
404.6 K	–	30.23	–
413.8 K	–	41.16	–
423.8 K	–	52.6	–
433.5 K	–	62.27	–
438.1 K	–	72.35	–
443.6 K	–	81.58	–
449.3 K	–	92.85	–
454 K	–	103.42	–

CC(=O)C1CC1 [1-cyclopropyl ethanone]
[1]
Settings	mass density [kg/m3]	vapor or sublimation pressure [kPa]	viscosity [mPa·s]
300 K	–	3.65	–
303.15 K	889.8	–	0.5572
310.1 K	–	6.06	–
313.15 K	880.3	–	0.5015
320.8 K	–	9.95	–
323.15 K	870.6	–	0.4524
333.15 K	861.2	–	0.3942
337 K	–	20.07	–
347.7 K	–	30.05	–
355.6 K	–	40.07	–
362.1 K	–	49.78	–
367.6 K	–	59.85	–
372.6 K	–	70.04	–
376.9 K	–	80.03	–
380.6 K	–	89.62	–
384.8 K	–	101.3	–
385 K	–	102.18	–

CC(=O)C1CC1 [1-cyclopropyl ethanone] + CC(=O)C1CCOC1=O
[2]
Settings	mass density [kg/m3]	viscosity [mPa·s]
303.15 K	889.8	0.5572
313.15 K	880.3	0.5015
323.15 K	870.6	0.4524
333.15 K	861.2	0.3942

CC(=O)C1CCOC1=O (centres undefined) [2-acetylbutyrolactone]
[1]
Settings	mass density [kg/m3]	vapor or sublimation pressure [kPa]	viscosity [mPa·s]
303.15 K	1185.7	–	3.794
313.15 K	1178.3	–	3.424
323.15 K	1168.9	–	3.067
333.15 K	1159.4	–	2.719
385 K	–	0.552	–
395.1 K	–	1.02	–
405.2 K	–	1.77	–
415.3 K	–	2.92	–
425.5 K	–	4.61	–
434.6 K	–	6.98	–
445.1 K	–	10	–
464.5 K	–	20	–
478.2 K	–	30.05	–
489.4 K	–	40.17	–
505.8 K	–	60.05	–
511.5 K	–	69.06	–
517.3 K	–	78.1	–
523.3 K	–	88.01	–
530.8 K	–	103.54	–
530.9 K	–	101.3	–
